Experimental data: patent EP0745599A2, “1-(3-Heterocyclylphenyl)-s-triazine-2,4,6-oxo or thiotrione herbicidal agents” (American Cyanamid Company, priority 1995, dated 1996)

What was measured:
Assay type in all cases: in vivo
Conditions in all cases: rated four to five weeks after treatment
[1] = system: ABUTILON THEOPHRASTI, MEDIC.; assay: Preemergence herbicidal evaluation, ABUTH (Velvetleaf); design: key to ABUTH: visual rating scale 0-9 vs control
Source text: (§1) Results of herbicide evaluation are expressed on a rating scale (0-9). The scale is based upon a visual observation of plant stand, vigor, malformation, size, chlorosis and overall plant appearance as compared with a control.
(§2) The preemergence herbicidal activity of the test compounds of the present invention is exemplified by the following tests in which the seeds of a variety of monocotyledonous and dicotyledonous plants are separately mixed with potting soil and planted on top of approximately one inch of soil in separate pint cups. After planting, the cups are sprayed with the selected aqueous acetone solution containing test compound in sufficient quantity to provide the equivalent of about 0.125 to 0.50 kg per hectare of test compound per cup. The treated cups are then placed on greenhouse benches, watered and cared for in accordance with conventional greenhouse procedures. From four to five weeks after treatment, the tests are terminated and each cup is examined and rated according to the rating system provided in Example 42.

[2] = system: AMBROSIA ARTEMISIIFOLIA, L.; assay: Preemergence herbicidal evaluation, AMBEL (Ragweed, Common); design: key to AMBEL: visual rating scale 0-9 vs control
Source text: as §1, §2

[3] = system: GLYCINE MAX(L)MERR. CV. WILLIAMS; assay: Preemergence herbicidal evaluation, GLXMAW (Soybean, Williams); design: key to GLXMAW: visual rating scale 0-9 vs control
Source text: as §1, §2

[4] = system: TRITICUM AESTIVUM, CV. APOLLO; assay: Preemergence herbicidal evaluation, TRZAWO (Wheat, Winter, CV. APOLLO); design: key to TRZAWO: visual rating scale 0-9 vs control
Source text: as §1, §2

GALIUM APARINE = assay: Preemergence herbicidal evaluation, GALAP (Galium); design: key to GALAP: visual rating scale 0-9 vs control
Source text: as §1, §2

[5] = system: ECHINOCHLOA CRUS-GALLI, (L) BEAU; assay: Preemergence herbicidal evaluation, ECHCG (Barnyardgrass); design: key to ECHCG: visual rating scale 0-9 vs control
Source text: as §1, §2

CASSIA OBTUSIFOLIA, L. = assay: Preemergence herbicidal evaluation, CASOB (Sicklepod); design: key to CASOB: visual rating scale 0-9 vs control
Source text: as §1, §2

[6] = system: SETARIA VIRIDIS, (L) BEAU; assay: Preemergence herbicidal evaluation, SETVI (Foxtail, Green); design: key to SETVI: visual rating scale 0-9 vs control
Source text: as §1, §2

[7] = system: ORYZA SATIVA, L. TEBONNET; assay: Preemergence herbicidal evaluation, ORYSAT (Rice, Tebonnet); design: key to ORYSAT: visual rating scale 0-9 vs control
Source text: as §1, §2

ZEA MAYS L. = assay: Preemergence herbicidal evaluation, ZEAMX (Corn, Field); design: key to ZEAMX: visual rating scale 0-9 vs control
Source text: as §1, §2

CHENOPODIUM ALBUM, L. = assay: Preemergence herbicidal evaluation, CHEAL (Lambsquarters, Common); design: key to CHEAL: visual rating scale 0-9 vs control
Source text: as §1, §2

IPOMOEA SPP. = assay: Preemergence herbicidal evaluation, IPOSS (Morningglory Spp.); design: key to IPOSS: visual rating scale 0-9 vs control
Source text: as §1, §2

[8] = system: ECHINOCHLOA CRUS-GALLI, (L) BEAU; assay: Postemergence herbicidal evaluation, ECHCG (Barnyardgrass)
Protocol: In the tests, seedling plants are grown in jiffy flats for about two weeks. The test compounds are dispersed in 50/50 acetone/water mixtures containing 0.5% TWEEN®20, a polyoxyethylene sorbitan monolaurate surfactant of Atlas Chemical Industries, in sufficient quantities to provide the equivalent of about 0.125 kg to 0.500 kg per hectare of active compound when applied to the plants through a spray nozzle operating at 40 psi for a predetermined time. After spraying, the plants are placed on greenhouse benches and are cared for in the usual manner, commensurate with conventional greenhouse practices. From four to five weeks after treatment, the seedling plants are examined and rated according to the rating system set forth below. Where more than one test is involved for a given compound, the data are averaged.
as §1

## C=CCn1c(=O)[nH]c(=O)n(-c2cc(N3C(=O)C4=C(CCCC4)C3=O)c(F)cc2Cl)c1=O [Compound 18, N-[5-(3-Allylhexahydro-2,4,6-trioxo-s-triazin-1-yl)-4-chloro-2-fluorophenyl]-1-cyclohexene-1,2-dicarboximide]
[1]; Rate 0.125 kg/ha
  ABUTH: 0.0
[1]; Rate 0.250 kg/ha
  ABUTH: 0.0
[1]; Rate 0.500 kg/ha
  ABUTH: 0.0
[2]; Rate 0.125 kg/ha
  AMBEL: 0.0
[2]; Rate 0.250 kg/ha
  AMBEL: 0.0
[2]; Rate 0.500 kg/ha
  AMBEL: 0.0
[3]; Rate 0.125 kg/ha
  GLXMAW: 0.0
[3]; Rate 0.250 kg/ha
  GLXMAW: 0.0
[3]; Rate 0.500 kg/ha
  GLXMAW: 0.0
[4]; Rate 0.125 kg/ha
  TRZAWO: 0.0
[4]; Rate 0.250 kg/ha
  TRZAWO: 0.0
[4]; Rate 0.500 kg/ha
  TRZAWO: 0.0
GALIUM APARINE; Rate 0.125 kg/ha
  GALAP: 0.0
GALIUM APARINE; Rate 0.250 kg/ha
  GALAP: 0.0
GALIUM APARINE; Rate 0.500 kg/ha
  GALAP: 4.0
[5]; Rate 0.125 kg/ha
  ECHCG: 0.0
[5]; Rate 0.250 kg/ha
  ECHCG: 0.0
[5]; Rate 0.500 kg/ha
  ECHCG: 0.0
CASSIA OBTUSIFOLIA, L.; Rate 0.125 kg/ha
  CASOB: 0.0
CASSIA OBTUSIFOLIA, L.; Rate 0.250 kg/ha
  CASOB: 0.0
CASSIA OBTUSIFOLIA, L.; Rate 0.500 kg/ha
  CASOB: 0.0
[6]; Rate 0.125 kg/ha
  SETVI: 0.0
[6]; Rate 0.250 kg/ha
  SETVI: 0.0
[6]; Rate 0.500 kg/ha
  SETVI: 0.0
[7]; Rate 0.125 kg/ha
  ORYSAT: 0.0
[7]; Rate 0.250 kg/ha
  ORYSAT: 0.0
[7]; Rate 0.500 kg/ha
  ORYSAT: 0.0
ZEA MAYS L.; Rate 0.125 kg/ha
  ZEAMX: 0.0
ZEA MAYS L.; Rate 0.250 kg/ha
  ZEAMX: 0.0
ZEA MAYS L.; Rate 0.500 kg/ha
  ZEAMX: 0.0
CHENOPODIUM ALBUM, L.; Rate 0.125 kg/ha
  CHEAL: 0.0
CHENOPODIUM ALBUM, L.; Rate 0.250 kg/ha
  CHEAL: 5.0
CHENOPODIUM ALBUM, L.; Rate 0.500 kg/ha
  CHEAL: 7.0
IPOMOEA SPP.; Rate 0.125 kg/ha
  IPOSS: 0.0
IPOMOEA SPP.; Rate 0.250 kg/ha
  IPOSS: 0.0
IPOMOEA SPP.; Rate 0.500 kg/ha
  IPOSS: 4.0

## Cn1c(=O)n(CC(=O)OC(C)(C)C)c(=O)n(-c2cc(N3C(=O)C4=C(CCCC4)C3=O)c(Cl)cc2Cl)c1=O [Compound 7, Tert-butyl 3-[2,4-dichloro-5-(1-cyclohexene-1,2-dicarboximido)phenyl]tetrahydro-5-methyl-2,4,6-trioxo-s-triazine-1(2H)-acetate]
[2]; 0.125 kg/ha
  Herbicide rating (0-9) AMBEL: 0.0
[2]; 0.250 kg/ha
  Herbicide rating (0-9) AMBEL: 0.0
[3]; 0.125 kg/ha
  Herbicide rating (0-9) GLXMAW: 0.0
[3]; 0.250 kg/ha
  Herbicide rating (0-9) GLXMAW: 0.0
[3]; 0.500 kg/ha
  Herbicide rating (0-9) GLXMAW: 0.0
[5]; 0.125 kg/ha
  Herbicide rating (0-9) ECHCG: 0.0
[5]; 0.250 kg/ha
  Herbicide rating (0-9) ECHCG: 0.0
[5]; 0.500 kg/ha
  Herbicide rating (0-9) ECHCG: 0.0
CASSIA OBTUSIFOLIA, L.; 0.125 kg/ha
  Herbicide rating (0-9) CASOB: 0.0
CASSIA OBTUSIFOLIA, L.; 0.250 kg/ha
  Herbicide rating (0-9) CASOB: 0.0
CASSIA OBTUSIFOLIA, L.; 0.500 kg/ha
  Herbicide rating (0-9) CASOB: 0.0
[6]; 0.125 kg/ha
  Herbicide rating (0-9) SETVI: 0.0
[6]; 0.250 kg/ha
  Herbicide rating (0-9) SETVI: 0.0
[6]; 0.500 kg/ha
  Herbicide rating (0-9) SETVI: 0.0
ZEA MAYS L.; 0.125 kg/ha
  Herbicide rating (0-9) ZEAMX: 0.0
ZEA MAYS L.; 0.250 kg/ha
  Herbicide rating (0-9) ZEAMX: 0.0
ZEA MAYS L.; 0.500 kg/ha
  Herbicide rating (0-9) ZEAMX: 0.0
IPOMOEA SPP.; 0.125 kg/ha
  Herbicide rating (0-9) IPOSS: 0.0
IPOMOEA SPP.; 0.250 kg/ha
  Herbicide rating (0-9) IPOSS: 0.0
IPOMOEA SPP.; 0.500 kg/ha
  Herbicide rating (0-9) IPOSS: 0.0

## COC(=O)Cn1c(=O)n(C)c(=O)n(-c2cc(N3C(=O)C4=C(CCCC4)C3=O)c(Cl)cc2Cl)c1=O [Compound 6, Methyl 3-[2,4-dichloro-5-(1-cyclohexene-1,2-dicarboximido)phenyl]tetrahydro-5-methyl-2,4,6-trioxo-s-triazine-1(2H)-acetate]
[4]; 0.125 kg/ha
  Herbicide rating (0-9) TRZAWO: 2.0
[4]; 0.250 kg/ha
  Herbicide rating (0-9) TRZAWO: 2.0
[4]; 0.500 kg/ha
  Herbicide rating (0-9) TRZAWO: 2.0
[5]; 0.125 kg/ha
  Herbicide rating (0-9) ECHCG: 0.0
[5]; 0.250 kg/ha
  Herbicide rating (0-9) ECHCG: 0.0
[5]; 0.500 kg/ha
  Herbicide rating (0-9) ECHCG: 0.0
[7]; 0.125 kg/ha
  Herbicide rating (0-9) ORYSAT: 4.0
[7]; 0.250 kg/ha
  Herbicide rating (0-9) ORYSAT: 4.0
[7]; 0.500 kg/ha
  Herbicide rating (0-9) ORYSAT: 4.0
IPOMOEA SPP.; 0.125 kg/ha
  Herbicide rating (0-9) IPOSS: 4.0
IPOMOEA SPP.; 0.250 kg/ha
  Herbicide rating (0-9) IPOSS: 4.0
IPOMOEA SPP.; 0.500 kg/ha
  Herbicide rating (0-9) IPOSS: 4.0

## C=CCn1c(=O)n(C)c(=O)n(-c2cc(N3C(=O)C4=C(CCCC4)C3=O)c(F)cc2Cl)c1=O [Compound 17, N-[5-(3-Allylhexahydro-5-methyl-2,4,6-trioxo-s-triazin-1-yl)-4-chloro-2-fluoro-phenyl]-1-cyclohexene-1,2-dicarboximide]
[1]; Rate 0.125 kg/ha
  ABUTH: 0.0
[1]; Rate 0.250 kg/ha
  ABUTH: 3.0
[1]; Rate 0.500 kg/ha
  ABUTH: 9.0
[2]; Rate 0.125 kg/ha
  AMBEL: 0.0
[2]; Rate 0.250 kg/ha
  AMBEL: 0.0
[2]; Rate 0.500 kg/ha
  AMBEL: 2.0
[8]; 0.125 kg/ha
  Herbicide rating (0-9) ECHCG: 0.0
[8]; 0.250 kg/ha
  Herbicide rating (0-9) ECHCG: 0.0
[8]; 0.500 kg/ha
  Herbicide rating (0-9) ECHCG: 0.0
[3]; Rate 0.125 kg/ha
  GLXMAW: 0.0
[3]; Rate 0.250 kg/ha
  GLXMAW: 0.0
[3]; Rate 0.500 kg/ha
  GLXMAW: 0.0
[4]; Rate 0.125 kg/ha
  TRZAWO: 0.0
[4]; Rate 0.250 kg/ha
  TRZAWO: 0.0
[4]; Rate 0.500 kg/ha
  TRZAWO: 0.0
GALIUM APARINE; Rate 0.125 kg/ha
  GALAP: 0.0
GALIUM APARINE; Rate 0.250 kg/ha
  GALAP: 7.0
GALIUM APARINE; Rate 0.500 kg/ha
  GALAP: 4.0
[5]; Rate 0.125 kg/ha
  ECHCG: 0.0
[5]; Rate 0.250 kg/ha
  ECHCG: 0.0
[5]; Rate 0.500 kg/ha
  ECHCG: 0.0
CASSIA OBTUSIFOLIA, L.; Rate 0.125 kg/ha
  CASOB: 0.0
CASSIA OBTUSIFOLIA, L.; Rate 0.250 kg/ha
  CASOB: 0.0
CASSIA OBTUSIFOLIA, L.; Rate 0.500 kg/ha
  CASOB: 0.0
[6]; Rate 0.125 kg/ha
  SETVI: 0.0
[6]; Rate 0.250 kg/ha
  SETVI: 0.0
[6]; Rate 0.500 kg/ha
  SETVI: 3.0
[7]; Rate 0.125 kg/ha
  ORYSAT: 0.0
[7]; Rate 0.250 kg/ha
  ORYSAT: 0.0
[7]; Rate 0.500 kg/ha
  ORYSAT: 2.0
ZEA MAYS L.; Rate 0.125 kg/ha
  ZEAMX: 0.0
ZEA MAYS L.; Rate 0.250 kg/ha
  ZEAMX: 0.0
ZEA MAYS L.; Rate 0.500 kg/ha
  ZEAMX: 3.0
CHENOPODIUM ALBUM, L.; Rate 0.125 kg/ha
  CHEAL: 6.0
CHENOPODIUM ALBUM, L.; Rate 0.250 kg/ha
  CHEAL: 9.0
CHENOPODIUM ALBUM, L.; Rate 0.500 kg/ha
  CHEAL: 9.0
IPOMOEA SPP.; Rate 0.125 kg/ha
  IPOSS: 0.0
IPOMOEA SPP.; Rate 0.250 kg/ha
  IPOSS: 0.0
IPOMOEA SPP.; Rate 0.500 kg/ha
  IPOSS: 0.0
